The text below walks through data of patent US12036222B2, “Methods of treating cancers overexpressing CARM1 with EZH2 inhibitors and a PARP inhibitor” (The Wistar Institut of Anatomy and Biology, priority 2018, dated 2024).

Test [1] deals with DAB2, DLC1, and NOXA. Kind of test: qRT-PCR of EZH2/BAF155 target genes in cells. The class given is cell-based, human. The note with it: 10 μM GSK126. As to the method: FIG. 55 illustrates the relative expression of DAB2, DLC1, and NOXA in parental control and CARM1 knockout A1847 cells that were treated with 10 μM GSK126 or vehicle controls. mRNA expression of the indicated genes was determined by qRT-PCR. *p<0.002 compared with parental controls.
FIG. 56 illustrates the relative expression of DAB2, DLC1, and NOXA in CARM1 high OVCAR10 cells treated with 10 μM GSK126 or vehicle control for 7 days. Expression of the indicated BAF155/EZH2 target genes was determined by qRT-PCR. *p<0.001. Mean of three independent experiments with SEM.
RNA was isolated by RNeasy Mini Kit (Qiagen). mRNA relative expression for DAB2, DLC1, and PMAIP was determined using SYBR green 1-step iScript (Bio-Rad) with a Life Technologies QuantStudio 3. The primers were: 5′-[…]-3′ (DAB2 forward (SEQ ID NO: 2)) and 5′-[…]-3′ (DAB2 reverse (SEQ ID NO: 3)); 5′-[…]-3′ (DLC1 forward (SEQ ID NO: 4)) and 5′-[…]-3′ (DLC1 reverse (SEQ ID NO: 5)); 5′-[…]-3′ (NOXA forward (SEQ ID NO: 6)) and 5′-[…]-3′ (NOXA reverse (SEQ ID NO: 7)); and 5′-[…]-3′ (TIMP3 forward (SEQ ID NO: 8)) and 5′-[…]-3′ (TIMP3 reverse (SEQ ID NO: 9)).
In general terms: In qPCR the cycle at which signal appears reflects the starting amount.

For test [2], the system named is CARM1-expressing tumors. Kind of test: Immunohistochemistry and qRT-PCR of dissected CARM1-expressing tumors. Format: in vivo, mice. As to the method:
FIG. 79 illustrates immunohistochemical analysis for serial sections of tumors dissected from the indicated treatment groups where the tumor sections were stained for H3K27Me3, EZH2, cleaved caspase 3, and Ki67. Scale bar=50 μm.
FIG. 80 illustrates histological scoring (H-score) of the indicated proteins that was calculated for 3 separate fields from 5 tumors from 5 individual mice from each of the indicated groups.
FIG. 81 illustrates the expression of the indicated EZH2/BAF155 target genes that was determined by qRT-PCR in the tumors dissected from the indicated treatment groups.
The observed tumor growth suppression in vivo was correlated with the molecular pathways underlying the CARM1-dependent effects of EZH2 inhibition. To do so, immunohistochemical (IHC) analysis was performed for markers of cell proliferation (Ki67), apoptosis (cleaved caspase 3), H3K27Me3 and EZH2. […] Finally, the observed decrease in cell proliferation and increase in apoptosis correlated with the upregulation of the identified CARM1-regulated EZH2/BAF155 target genes such as DAB2, DLC1 and NOXA by the EZH2 inhibitor GSK126 in vivo (FIG. 81).

For test [3], the system named is parental and CARM1 knockout A1847 cells, CARM1 high OVCAR10 cells. Nature of the test: Apoptosis markers (Annexin V, cleaved caspase 3, cleaved PARP). Format: cell-based, human. The note with it: 10 μM GSK126, 7 days; CARM1-dependent manner. As to the method: FIG. 37 illustrates control parental and CARM1 knockout A1847 cells were treated with 10 μM GSK126 or vehicle for 7 days. Percentage of Annexin V positive apoptotic cells was quantified. *p<0.001 and #p>0.05.
FIG. 38 illustrates levels of cleaved caspase 3 and cleaved PARP in control parental and CARM1 knockout A1847 cells treated with 10 μM GSK126 for 7 days. Expression of 3-actin was used as a loading control.
FIG. 39A illustrates the expression of apoptosis markers cleaved in CARM1 high OVCAR10 cells as a result of treatment with GSK126. CARM1 high OVCAR10 cells were treated with 10 μM GSK126 or vehicle control for 7 days. The expression of apoptosis markers cleaved caspase 3 and cleaved PARP were determined by immunoblot. Expression of β-actin was used as a loading control.
Phosphatidylserine externalization was detected using an Annexin V staining kit (Millipore) following the manufacturer's instructions. Annexin V-positive cells were detected using the Guava System and analyzed with the Guava Nexin software Module (Millipore).

For test [4], the system named is BAF155Me. Nature of the test: Immunoblot for BAF155Me levels. The class given is cell-based, human. As to conditions: 10 μM GSK126, 7 days. Here is the method: FIG. 53 illustrates that the indicated CARM1-high cells were infected with the indicated shCARM1 or controls. Expression of CARM1 and BAF155Me levels and loading control (p-actin) was determined by immunoblot. FIG. 54 illustrates that the indicated cells were treated with 10 μM GSK126 or vehicle control for 7 days. Expression of BAF155 and a loading control (0-actin) was determined by immunoblot.

Test [5] relates to CARM1-expressing cell lines (A1847, OVCAR10, and PEO4). Kind of test: Colony formation assay and GSK126 response curves in CARM1-expressing ovarian cancer cell lines. Format: cell-based, human. Here is the method: In FIG. 4, CARM1 expression in a panel of high-grade ovarian carcinomas is depicted. FIG. 5 illustrates the results of a colony formation assay with a panel of normal and ovarian cancer cell lines with DMSO and with 10 μM of the EZH2 inhibitor GSK126 (Formula (1)).
In FIG. 7, response curves for GSK126 in a panel of normal and ovarian cancer cell lines are shown.
(§1) 500 to 5,000 cell were plated into a 24 well tissue culture plate and treated with the indicated compounds. Medium was changed every three days with appropriate drug doses for 12 days or until control wells became confluent. Colonies were washed twice with PBS and fixed with 10% methanol and 10% acetic acid in distilled water. Fixed colonies were stained with 0.005% crystal violet. Integrated density was measured using NIH ImageJ software.

The subject of test [6] is HOSE or FTE cells. Kind of test: Colony formation assay in normal HOSE and FTE cells. The class given is cell-based, human. The note with it: 10 μM GSK126, colony formation. Here is the method:
FIG. 33 illustrates relative growth of the indicated HOSE, FTE, and EOC cancer cell lines with high or low CARM1 expression treated with 10 μM GSK126 or vehicle in a colony formation assay as determined by NIH Image J quantification.
as §1

“Also recorded” adds a separate entry of the source.

On to `CC[C@H](C)n1cc(C)c2c(C(=O)NCc3c(C)cc(C)[nH]c3=O)cc(-c3ccc(N4CCNCC4)nc3)cc21` [GSK126, (S)-1-(sec-butyl)-N-((4,6-dimethyl-2-oxo-1,2-dihydropyridin-3-yl)methyl)-3-methyl-6-(6-(piperazin-1-yl)pyridin-3-yl)-1H-indole-4-carboxamide], for which the “expression of identified EZH2/BAF155 target genes (DAB2, DLC1, NOXA)” value in test [1] (A1847, OVCAR10 cells) is “upregulated”. Besides, in test [1] (CARM1 knockout A1847 cells), the “additivity of GSK126 treatment and CARM1 knockout on target gene expression” value is listed as “did not appear to have additive effects”. In addition, in test [2] (IHC), the EZH2 staining entry was “did not affect EZH2 staining”, the H3K27Me3 staining entry is “decreased”, the “expression of Ki67” value is given as “decreased the expression of Ki67” and the “expression of cleaved caspase 3” value is on record as “increased the expression of cleaved caspase 3”. The “expression of EZH2/BAF155 target genes DAB2, DLC1 and NOXA in vivo” value in test [2] (qRT-PCR) was “upregulation”. Moreover, the markers of apoptosis result in test [3] is recorded as “induced”. The BAF155Me levels entry in test [4] is “did not affect BAF155Me levels”. For the same compound, the “sensitivity in colony formation assay” value in test [5] (10 μM GSK126 vs DMSO, panel of normal and ovarian cancer cell lines) is “particular sensitivity of CARM1-expressing cells”. The “IC50 values from GSK126 response curves” value in test [5] (CARM1-expressing lines A1847, OVCAR10, PEO4 compared with rest of panel of normal and ovarian cancer cell lines, numbers only in FIG. 8) is recorded as “Significantly reduced IC50 values”. Besides, the “correlation of cellular response with CARM1 expression levels” value in test [5] (panel of EOC cell lines, 10 μM GSK126) was “correlation between CARM1 expression levels and cellular response to GSK126”. Besides, the “growth of HOSE or FTE cells” value in test [6] was “did not affect the growth; also recorded: didn't affect the growth”.
